The text below walks through data of PubChem BioAssay AID328 (DTP/NCI, 2004).

Several values for one entry are separate records, joined by “and”; a condition that tells them apart may be missing. Equal entries are not always repeated. Inconclusive results and toxic doses are left out.

The experiment has as its system BDF1 mice, P388 leukemia ip, median survival T/C. Nature of the experiment: NCI In Vivo Anticancer Drug Screen. Data for tumor model P388 Leukemia (intraperitoneal) in B6D2F1 (BDF1) mice. Conditions: endpoint: median survival time, higher = longer survival. In outline:
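Read-out is survival of treated animals expressed relative to the vehicle group, as a T/C ratio.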

Where [1] appears, read: dose: 25.0 mg/kg/injection, schedule: Q01DX009 (ip), vehicle: Klucel (hydroxypropylcellulose) (HPC).
[2] abbreviates: dose: 25.0 mg/kg/injection, schedule: Q04DX003 (ip), vehicle: Klucel (hydroxypropylcellulose) (HPC).
The mark [3] stands for this setting: dose: 50.0 mg/kg/injection, schedule: Q01DX009 (ip), vehicle: Klucel (hydroxypropylcellulose) (HPC).
The mark [4] stands for this setting: dose: 50.0 mg/kg/injection, schedule: Q04DX003 (ip), vehicle: Klucel (hydroxypropylcellulose) (HPC).
Setting [5] is: dose: 100.0 mg/kg/injection, schedule: Q04DX003 (ip), vehicle: Klucel (hydroxypropylcellulose) (HPC).
The mark [6] stands for this setting: dose: 50.0 mg/kg/injection, schedule: Q01DX009 (ip), vehicle: saline with Tween-80.
The mark [7] stands for this setting: dose: 100.0 mg/kg/injection, schedule: Q01DX009 (ip), vehicle: saline with Tween-80.
The mark [8] stands for this setting: dose: 200.0 mg/kg/injection, schedule: Q01DX009 (ip), vehicle: saline with Tween-80.
Setting [9] is: dose: 200.0 mg/kg/injection, schedule: Q04DX003 (ip), vehicle: Klucel (hydroxypropylcellulose) (HPC).
Setting [10] is: dose: 400.0 mg/kg/injection, schedule: Q04DX003 (ip), vehicle: Klucel (hydroxypropylcellulose) (HPC).
The mark [11] stands for this setting: dose: 6.25 mg/kg/injection, schedule: Q01DX009 (ip), vehicle: saline with Tween-80.
The mark [12] stands for this setting: dose: 12.5 mg/kg/injection, schedule: Q01DX009 (ip), vehicle: saline with Tween-80.
Setting [13] is: dose: 100.0 mg/kg/injection, schedule: Q01DX009 (ip), vehicle: Klucel (hydroxypropylcellulose) (HPC).
[14] abbreviates: dose: 200.0 mg/kg/injection, schedule: Q01DX009 (ip), vehicle: Klucel (hydroxypropylcellulose) (HPC).
[15] abbreviates: dose: 37.5 mg/kg/injection, schedule: Q04DX003 (ip), vehicle: saline.
[16] abbreviates: dose: 200.0 mg/kg/injection, schedule: Q04DX003 (ip), vehicle: saline.
[17] abbreviates: dose: 400.0 mg/kg/injection, schedule: Q04DX003 (ip), vehicle: saline.
The mark [18] stands for this setting: dose: 100.0 mg/kg/injection, schedule: Q04DX003 (ip), vehicle: saline.
[19] abbreviates: dose: 25.0 mg/kg/injection, schedule: Q04DX003 (ip), vehicle: saline.

For the compound `CC[n+]1ccc(Cc2ccc([N+](=O)[O-])cc2)cc1`, the T/C runs as follows: under setting [1], 104 % of control and 119 % of control; under setting [2], 100 % of control; under setting [3], 109 % of control; under setting [4], 100 % of control; under setting [5], 100 % of control.

Take `CCOC(=O)/C=C(C)/C=C/C=C(C)/C=C/c1c(C)cc(OC)c(C)c1C`: the T/C reads like this: under setting [6], 96 % of control; under setting [7], 91 % of control; under setting [8], 98 % of control.

For `CC1=C(C)CC2C(=O)C(C(O)CC(C)C)=CC(=O)C2C1` (stereo not given), the T/C reads like this: (dose: 100.0 mg/kg/injection, schedule: Q04DX003 (ip), vehicle: saline with Tween-80) 100 % of control; (dose: 200.0 mg/kg/injection, schedule: Q04DX003 (ip), vehicle: saline with Tween-80) 113 % of control; (dose: 400.0 mg/kg/injection, schedule: Q04DX003 (ip), vehicle: saline with Tween-80) 93 % of control.

On to `C/C(=N\Nc1nc2ccccc2o1)c1ccncc1`, for which the T/C is 104 % of control under setting [9] and 86 % of control under setting [10].

As for `CCCCCCOB(OCCCCCC)OCCCCCC`, the T/C is, setting by setting: (dose: 22.5 mg/kg/injection, schedule: Q01DX009 (ip), vehicle: saline with Tween-80) 94 % of control; (dose: 45.0 mg/kg/injection, schedule: Q01DX009 (ip), vehicle: saline with Tween-80) 97 % of control; (dose: 90.0 mg/kg/injection, schedule: Q01DX009 (ip), vehicle: saline with Tween-80) 102 % of control.

For the compound `CCOC(=O)Nc1cc(NCC(=O)c2ccc(C(F)(F)F)cc2)c([N+](=O)[O-])c(N)n1`, the T/C reads like this: (dose: 50.0 mg/kg/injection, schedule: Q01DX001 (ip), vehicle: saline with Tween-80) 94 % of control; (dose: 100.0 mg/kg/injection, schedule: Q01DX001 (ip), vehicle: saline with Tween-80) 105 % of control; (dose: 200.0 mg/kg/injection, schedule: Q01DX001 (ip), vehicle: saline with Tween-80) 105 % of control.

In the case of `CSc1nc2n(C)cc(C)cc-2c(=O)n1`, the T/C (dose: 100.0 mg/kg/injection, schedule: Q01DX001 (ip), vehicle: suspension in saline) was 90 % of control.

With `CC1(C)N=C(N)N=C(N)N1c1ccc(C(=O)CCl)cc1`, the T/C by setting is: (dose: 10.0 mg/kg/injection, schedule: Q01DX009 (ip), vehicle: saline) 108 % of control; (dose: 20.0 mg/kg/injection, schedule: Q01DX009 (ip), vehicle: saline) 108 % of control; (dose: 40.0 mg/kg/injection, schedule: Q01DX009 (ip), vehicle: saline) 118 % of control.

With `O=C(C=C(C(F)(F)F)C(F)(F)F)c1ccco1`, the T/C under setting [11] was 120 % of control and the T/C under setting [12] was 120 % of control.

Take `CC1NC(=O)NC1CCCCCC(=O)O` (stereo not given): the T/C by setting is: under setting [13], 95 % of control; under setting [5], 116 % of control; under setting [14], 90 % of control; under setting [9], 104 % of control; (dose: 400.0 mg/kg/injection, schedule: Q01DX009 (ip), vehicle: Klucel (hydroxypropylcellulose) (HPC)) 95 % of control; under setting [10], 91 % of control.

In the case of `Cc1cc(NCCCCCCNc2cc(C)nc3ccc(N)cc23)c2cc(N)ccc2n1`, the T/C is 163 % of control under setting [15]; 159 % of control (dose: 75.0 mg/kg/injection, schedule: Q04DX003 (ip), vehicle: saline); 218 % of control (dose: 150.0 mg/kg/injection, schedule: Q04DX003 (ip), vehicle: saline); 213 % of control (dose: 198.0 mg/kg/injection, schedule: Q04DX003 (ip), vehicle: Klucel (hydroxypropylcellulose) (HPC)); 210 % of control under setting [16]; 230 % of control and 213 % of control (dose: 300.0 mg/kg/injection, schedule: Q04DX003 (ip), vehicle: saline). In addition, the T/C under setting [10] was 254 % of control and the T/C under setting [17] is 250 % of control.

For `NCC(=O)O`, the T/C is 95 % of control (dose: 100.0 mg/kg/injection, schedule: Q01DX009 (ip), vehicle: saline); 100 % of control under setting [18]; 104 % of control (dose: 200.0 mg/kg/injection, schedule: Q01DX009 (ip), vehicle: saline); 95 % of control under setting [16]; 95 % of control (dose: 400.0 mg/kg/injection, schedule: Q01DX009 (ip), vehicle: saline); 95 % of control under setting [17].

Take `CC(=O)NNC(=O)c1ccccc1`: the T/C reads like this: (dose: 12.0 mg/kg/injection, schedule: Q04DX003 (ip), vehicle: Klucel (hydroxypropylcellulose) (HPC)) 104 % of control; under setting [2], 100 % of control; under setting [3], 87 % of control; under setting [4], 104 % of control; (dose: 75.0 mg/kg/injection, schedule: Q01DX009 (ip), vehicle: Klucel (hydroxypropylcellulose) (HPC)) 105 % of control; (dose: 75.0 mg/kg/injection, schedule: Q04DX003 (ip), vehicle: Klucel (hydroxypropylcellulose) (HPC)) 100 % of control. Further, the T/C under setting [13] was 87 % of control; the T/C under setting [5] is 90 % of control; the T/C (dose: 150.0 mg/kg/injection, schedule: Q01DX009 (ip), vehicle: Klucel (hydroxypropylcellulose) (HPC)) was 110 % of control; the T/C under setting [14] was 91 % of control; the T/C under setting [9] is 95 % of control and 100 % of control; the T/C under setting [10] is 109 % of control and 118 % of control.

With `O=C(c1ccccc1)C12CC3CC(CC(C3)C1)C2`, the T/C under setting [11] is 90 % of control and 98 % of control; the T/C under setting [12] is 90 % of control; the T/C (dose: 25.0 mg/kg/injection, schedule: Q01DX009 (ip), vehicle: saline with Tween-80) is 90 % of control and 99 % of control; the T/C under setting [6] was 97 % of control; the T/C under setting [8] was 107 % of control.

`N#Cc1ccc(C(=O)/C=C/c2ccc(OCc3ccccc3)cc2)cc1`: the T/C under setting [6] was 91 % of control, the T/C under setting [7] was 89 % of control and the T/C under setting [8] is 91 % of control.

For the compound `O=[N+]([O-])c1ccc(-[n+]2nc(-c3ccccc3)nn2-c2ccc(I)cc2)cc1`, the T/C is 100 % of control (dose: 12.5 mg/kg/injection, schedule: Q01DX009 (ip), vehicle: Klucel (hydroxypropylcellulose) (HPC)); 90 % of control (dose: 16.5 mg/kg/injection, schedule: Q04DX003 (ip), vehicle: Klucel (hydroxypropylcellulose) (HPC)); 122 % of control (dose: 16.5 mg/kg/injection, schedule: Q04DX003 (ip), vehicle: saline); 110 % of control under setting [1]; 109 % of control under setting [2]; 109 % of control under setting [19]. Also, the T/C was 100 % of control (dose: 37.5 mg/kg/injection, schedule: Q04DX003 (ip), vehicle: Klucel (hydroxypropylcellulose) (HPC)) and 122 % of control under setting [15].

`O=C(CS)OCCOC(=O)CS`: the T/C is 104 % of control under setting [1]; 109 % of control under setting [19]; 100 % of control under setting [3]; 104 % of control (dose: 50.0 mg/kg/injection, schedule: Q04DX003 (ip), vehicle: saline); 95 % of control under setting [13]; 95 % of control under setting [18].

With `ClC(Cl)(Cl)C(Cl)(Cl)c1ccc(C(Cl)(Cl)C(Cl)(Cl)Cl)cc1`, the T/C (dose: 18.75 mg/kg/injection, schedule: Q01DX009 (ip), vehicle: saline with Tween-80) was 100 % of control; the T/C (dose: 37.5 mg/kg/injection, schedule: Q01DX009 (ip), vehicle: saline with Tween-80) is 100 % of control; the T/C (dose: 75.0 mg/kg/injection, schedule: Q01DX009 (ip), vehicle: saline with Tween-80) was 100 % of control; the T/C (dose: 100.0 mg/kg/injection, schedule: Q04DX003 (ip), vehicle: saline sonified) is 100 % of control; the T/C under setting [8] was 92 % of control; the T/C (dose: 400.0 mg/kg/injection, schedule: Q04DX003 (ip), vehicle: saline sonified) is 95 % of control.
